From PubChem BioAssay AID1963867 (Molecular Pharmacology Branch, DTP, NCI, 2024)

System: KRAS-mutant PDC tumor spheroid with HUVEC/MSC, viability
Experiment: Anticancer human tumor 327498-153-R-J2-PDC patient-derived uterine carcinosarcoma cell line growth inhibition [KRAS2]
Conditions: for IC50: curve of first compound; for viability, T/C: stronger effect = lower value
Procedure, shortened: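 KRAS-mutant tumor cells were grown as spheroids with HUVEC endothelial cells and human MSCs as stroma. Targeted agents were tested alone and with KRAS pathway inhibitors. Doses started at or near clinical Cmax, or 10 microM, descending half-log.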

[1] = second compound 0.1 µM, first compound 0.0316 µM
[2] = second compound 0.1 µM, first compound 0.1 µM
[3] = second compound 0.1 µM, first compound 0.316 µM
[4] = second compound 0.1 µM, first compound 1 µM
[5] = second compound 0.1 µM, first compound 3.16 µM
[6] = second compound 0.1 µM, first compound 10 µM
[7] = second compound 0.316 µM, first compound 0.0316 µM
[8] = second compound 0.316 µM, first compound 0.1 µM
[9] = second compound 0.316 µM, first compound 0.316 µM
[10] = second compound 0.316 µM, first compound 1 µM
[11] = second compound 0.316 µM, first compound 3.16 µM
[12] = second compound 0.316 µM, first compound 10 µM
[13] = second compound 1 µM, first compound 0.0316 µM
[14] = second compound 1 µM, first compound 0.1 µM
[15] = second compound 1 µM, first compound 0.316 µM
[16] = second compound 1 µM, first compound 1 µM
[17] = second compound 1 µM, first compound 3.16 µM
[18] = second compound 1 µM, first compound 10 µM
[19] = second compound 3.16 µM, first compound 0.0316 µM
[20] = second compound 3.16 µM, first compound 0.1 µM
[21] = second compound 3.16 µM, first compound 0.316 µM
[22] = second compound 3.16 µM, first compound 1 µM
[23] = second compound 3.16 µM, first compound 3.16 µM
[24] = second compound 3.16 µM, first compound 10 µM
[25] = second compound 10 µM, first compound 0.0316 µM
[26] = second compound 10 µM, first compound 0.1 µM
[27] = second compound 10 µM, first compound 0.316 µM
[28] = second compound 10 µM, first compound 1 µM
[29] = second compound 10 µM, first compound 3.16 µM
[30] = second compound 10 µM, first compound 10 µM
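Further: spheroids exposed to agents for seven days before reading.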
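Wherever viability, T/C is given: 100% = DMSO vehicle wells so lower means fewer viable cells.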

With `COC(=O)c1ccc2c(C(=Nc3ccc(N(C)C(=O)CN4CCN(C)CC4)cc3)c3ccccc3)c(O)[nH]c2c1` + CC1OCC2(CCN(c3cnc(Sc4ccnc(N)c4Cl)c(N)n3)CC2)C1N the IC50 (second compound 0.1 µM) was 561 nM, the IC50 (second compound 0.316 µM) was 157 nM and the IC50 (second compound 1 µM) was < 31.6 nM. For the same compound, the IC50 (second compound 3.16 µM) was < 31.6 nM, the IC50 (second compound 10 µM) was < 31.6 nM and the viability, T/C [1] was 76%. For the same compound, the viability, T/C [2] was 68.8%, the viability, T/C [3] was 58% and the viability, T/C [4] was 43.8%. For the same compound, the viability, T/C [5] was 26%, the viability, T/C [6] was 26.8% and the viability, T/C [7] was 57.1%. It also gave a viability, T/C [8] of 50.7%, a viability, T/C [9] of 44.7% and a viability, T/C [10] of 34.5%. It also gave a viability, T/C [11] of 16.2%, a viability, T/C [12] of 18.8% and a viability, T/C [13] of 40.4%. It also gave a viability, T/C [14] of 41.9%, a viability, T/C [15] of 33.3% and a viability, T/C [16] of 20.6%. For the same compound, the viability, T/C [17] was 14.5%, the viability, T/C [18] was 11.4% and the viability, T/C [19] was 36%. The viability, T/C [20] was 33.4%, the viability, T/C [21] was 23.5% and the viability, T/C [22] was 14.1%. The viability, T/C [23] was 11%, the viability, T/C [24] was 10.1% and the viability, T/C [25] was 28%. It also gave a viability, T/C [26] of 27.9%, a viability, T/C [27] of 20.5% and a viability, T/C [28] of 13.3%. The viability, T/C [29] was 11.4% and the viability, T/C [30] was 9.36%.
For `COc1cc(Nc2ncc3c(n2)-c2ccc(Cl)cc2C(c2c(F)cccc2OC)=NC3)ccc1C(=O)O` + CC1OCC2(CCN(c3cnc(Sc4ccnc(N)c4Cl)c(N)n3)CC2)C1N, the IC50 (second compound 0.1 µM) was < 31.6 nM, the IC50 (second compound 0.316 µM) was < 31.6 nM and the IC50 (second compound 1 µM) was < 31.6 nM. For the same compound, the IC50 (second compound 3.16 µM) was < 31.6 nM, the IC50 (second compound 10 µM) was < 31.6 nM and the viability, T/C [1] was 14.7%. For the same compound, the viability, T/C [2] was 11.3%, the viability, T/C [3] was 9.61% and the viability, T/C [4] was 8.46%. The viability, T/C [5] was 10.4%, the viability, T/C [6] was 10.4% and the viability, T/C [7] was 11.9%. For the same compound, the viability, T/C [8] was 8.86%, the viability, T/C [9] was 8.33% and the viability, T/C [10] was 8.66%. It also gave a viability, T/C [11] of 9.93%, a viability, T/C [12] of 9.67% and a viability, T/C [13] of 9.52%. The viability, T/C [14] was 8.62%, the viability, T/C [15] was 7.21% and the viability, T/C [16] was 7.15%. For the same compound, the viability, T/C [17] was 8.7%, the viability, T/C [18] was 7.62% and the viability, T/C [19] was 7.99%. For the same compound, the viability, T/C [20] was 6.54%, the viability, T/C [21] was 6% and the viability, T/C [22] was 5.95%. The viability, T/C [23] was 6.67%, the viability, T/C [24] was 5.35% and the viability, T/C [25] was 7.28%. The viability, T/C [26] was 6.61%, the viability, T/C [27] was 6.26% and the viability, T/C [28] was 6.94%. For the same compound, the viability, T/C [29] was 6.28% and the viability, T/C [30] was 5.22%.
In the case of `O=C(c1cc(Cc2n[nH]c(=O)c3ccccc23)ccc1F)N1CCN(C(=O)C2CC2)CC1` + CC1OCC2(CCN(c3cnc(Sc4ccnc(N)c4Cl)c(N)n3)CC2)C1N, the IC50 (second compound 0.1 µM) is reported as 1660 nM, the IC50 (second compound 0.316 µM) is reported as 1080 nM and the IC50 (second compound 1 µM) is reported as 242 nM. The IC50 (second compound 3.16 µM) was < 31.6 nM, the IC50 (second compound 10 µM) was < 31.6 nM and the viability, T/C [1] was 81.3%. It also gave a viability, T/C [2] of 83.8%, a viability, T/C [3] of 75% and a viability, T/C [4] of 62.6%. It also gave a viability, T/C [5] of 34.8%, a viability, T/C [6] of 19.4% and a viability, T/C [7] of 70.4%. For the same compound, the viability, T/C [8] was 68.6%, the viability, T/C [9] was 62.6% and the viability, T/C [10] was 52.2%. The viability, T/C [11] was 31.7%, the viability, T/C [12] was 17.5% and the viability, T/C [13] was 104%. The viability, T/C [14] was 60.7%, the viability, T/C [15] was 44.2% and the viability, T/C [16] was 40.9%. The viability, T/C [17] was 21.9%, the viability, T/C [18] was 14.2% and the viability, T/C [19] was 40.5%. The viability, T/C [20] was 37.6%, the viability, T/C [21] was 38.1% and the viability, T/C [22] was 28.7%. The viability, T/C [23] was 17.9%, the viability, T/C [24] was 13.8% and the viability, T/C [25] was 36.7%. It also gave a viability, T/C [26] of 31.8%, a viability, T/C [27] of 27.1% and a viability, T/C [28] of 25.3%. For the same compound, the viability, T/C [29] was 15.9% and the viability, T/C [30] was 11.4%.
